The target in assay [1] is T1, Inhibitor of nuclear factor kappa-B kinase subunit beta (Homo sapiens) (UniProt O14920).
T1 sequence (whole entry): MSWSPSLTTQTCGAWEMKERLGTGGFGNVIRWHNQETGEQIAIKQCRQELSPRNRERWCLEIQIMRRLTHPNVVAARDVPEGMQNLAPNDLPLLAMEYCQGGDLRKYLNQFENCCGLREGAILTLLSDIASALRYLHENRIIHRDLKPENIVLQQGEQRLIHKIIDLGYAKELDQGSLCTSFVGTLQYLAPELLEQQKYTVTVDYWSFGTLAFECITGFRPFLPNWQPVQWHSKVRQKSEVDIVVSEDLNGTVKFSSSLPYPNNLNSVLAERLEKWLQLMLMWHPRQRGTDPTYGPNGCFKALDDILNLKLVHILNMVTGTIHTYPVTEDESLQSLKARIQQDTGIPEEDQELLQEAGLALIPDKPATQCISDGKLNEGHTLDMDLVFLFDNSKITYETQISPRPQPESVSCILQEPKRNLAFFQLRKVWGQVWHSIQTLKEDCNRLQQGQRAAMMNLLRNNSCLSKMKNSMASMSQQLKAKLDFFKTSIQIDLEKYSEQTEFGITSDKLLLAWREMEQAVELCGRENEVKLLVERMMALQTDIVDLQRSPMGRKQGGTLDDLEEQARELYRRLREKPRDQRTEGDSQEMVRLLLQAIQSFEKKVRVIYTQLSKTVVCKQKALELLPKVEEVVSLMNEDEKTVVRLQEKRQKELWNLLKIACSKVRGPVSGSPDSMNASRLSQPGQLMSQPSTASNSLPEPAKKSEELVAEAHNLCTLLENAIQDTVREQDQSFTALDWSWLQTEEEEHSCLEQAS
In words: Inhibition of IKKbeta (unknown origin) at 1 uM.

Assay [2] concerns the target T2, Serine/threonine-protein kinase Chk1 (Homo sapiens) (UniProt O14757).
T2 sequence (whole entry): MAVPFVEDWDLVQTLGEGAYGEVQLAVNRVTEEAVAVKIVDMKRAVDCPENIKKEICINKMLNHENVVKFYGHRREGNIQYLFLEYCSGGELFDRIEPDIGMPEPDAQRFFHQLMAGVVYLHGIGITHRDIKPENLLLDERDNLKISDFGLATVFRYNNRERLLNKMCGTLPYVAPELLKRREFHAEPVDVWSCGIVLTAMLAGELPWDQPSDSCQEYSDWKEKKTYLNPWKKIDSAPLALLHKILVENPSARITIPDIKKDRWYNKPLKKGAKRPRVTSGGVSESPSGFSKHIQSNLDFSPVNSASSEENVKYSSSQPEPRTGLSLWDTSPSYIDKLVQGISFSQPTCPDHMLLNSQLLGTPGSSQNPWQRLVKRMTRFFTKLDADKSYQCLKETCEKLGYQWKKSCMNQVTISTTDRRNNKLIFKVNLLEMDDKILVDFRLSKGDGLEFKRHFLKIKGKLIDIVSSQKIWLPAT
In words: Inhibition of CHK1 (unknown origin) at 1 uM.

Assay [3] has as its target Tyrosine-protein kinase SYK (Homo sapiens) (UniProt P43405). In words: Inhibition of SYK (unknown origin) at 1 uM.
For assay [4], the target named is T3, Tyrosine-protein kinase JAK3 (Homo sapiens) (UniProt P52333).
T3 sequence (whole entry): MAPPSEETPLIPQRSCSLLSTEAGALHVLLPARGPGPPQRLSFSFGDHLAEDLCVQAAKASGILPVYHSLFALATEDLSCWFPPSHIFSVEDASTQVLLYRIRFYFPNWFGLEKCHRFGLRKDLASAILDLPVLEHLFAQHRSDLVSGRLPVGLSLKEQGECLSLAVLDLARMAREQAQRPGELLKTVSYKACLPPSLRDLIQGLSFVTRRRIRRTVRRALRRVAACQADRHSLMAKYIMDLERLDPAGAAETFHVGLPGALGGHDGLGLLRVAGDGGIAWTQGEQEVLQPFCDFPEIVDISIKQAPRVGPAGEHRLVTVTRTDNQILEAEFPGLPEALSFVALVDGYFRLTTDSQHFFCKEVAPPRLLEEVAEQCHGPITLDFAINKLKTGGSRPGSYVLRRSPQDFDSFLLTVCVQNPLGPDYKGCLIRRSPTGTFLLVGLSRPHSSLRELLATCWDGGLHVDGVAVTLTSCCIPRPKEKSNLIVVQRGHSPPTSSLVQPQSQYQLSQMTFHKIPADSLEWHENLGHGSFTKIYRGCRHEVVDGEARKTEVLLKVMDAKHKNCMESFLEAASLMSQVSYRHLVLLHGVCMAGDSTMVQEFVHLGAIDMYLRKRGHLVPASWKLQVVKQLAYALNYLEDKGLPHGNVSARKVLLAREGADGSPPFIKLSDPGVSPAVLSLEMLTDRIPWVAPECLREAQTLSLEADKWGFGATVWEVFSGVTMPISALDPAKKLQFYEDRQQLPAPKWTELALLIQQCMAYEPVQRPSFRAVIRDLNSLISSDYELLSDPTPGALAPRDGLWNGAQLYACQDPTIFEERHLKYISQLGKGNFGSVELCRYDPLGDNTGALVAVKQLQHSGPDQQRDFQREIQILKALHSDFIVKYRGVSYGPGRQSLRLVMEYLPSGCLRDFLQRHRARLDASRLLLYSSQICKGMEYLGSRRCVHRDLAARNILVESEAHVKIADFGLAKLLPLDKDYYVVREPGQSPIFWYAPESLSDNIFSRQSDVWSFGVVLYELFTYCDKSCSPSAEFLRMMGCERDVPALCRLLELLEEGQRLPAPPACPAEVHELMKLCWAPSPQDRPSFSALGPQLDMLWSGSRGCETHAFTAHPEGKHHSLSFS
In words: Inhibition of JAK3 (unknown origin) at 1 uM.

Assay [5] deals with CDK2/Cyclin A2 (Homo sapiens) (UniProt P24941+P20248). In words: Inhibition of CDK2/CyclinA (unknown origin) at 1 uM. Format: protein-complex assay.
Assay [6] deals with Mitogen-activated protein kinase 3 (Homo sapiens) (UniProt P27361). In words: Inhibition of ERK1 (unknown origin) at 1 uM.

Data on 1 molecule can be found in ChEMBL document CHEMBL3745672, “Novel compounds reducing IRS-1 serine phosphorylation for treatment of diabetes” (Bioorg Med Chem Lett, 2016).

In general, inhibition refers to the share of the control response that was lost under treatment.

Molecules are shown by their SMILES.

Sequence of Mitogen-activated protein kinase 3 (Homo sapiens) (P27361 whole entry): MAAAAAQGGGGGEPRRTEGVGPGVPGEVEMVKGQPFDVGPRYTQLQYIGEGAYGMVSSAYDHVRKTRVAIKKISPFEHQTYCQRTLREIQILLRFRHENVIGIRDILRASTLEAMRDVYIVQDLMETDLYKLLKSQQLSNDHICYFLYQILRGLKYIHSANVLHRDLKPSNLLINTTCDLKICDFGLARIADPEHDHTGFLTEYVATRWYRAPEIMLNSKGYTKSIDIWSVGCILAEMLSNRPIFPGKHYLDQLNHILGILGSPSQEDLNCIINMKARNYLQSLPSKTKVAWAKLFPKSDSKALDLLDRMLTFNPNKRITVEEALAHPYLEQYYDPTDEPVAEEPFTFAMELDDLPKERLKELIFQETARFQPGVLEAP

On to `Cn1c(=O)c(Oc2ccc(F)cc2F)cc2cnc(NC3CCN(S(N)(=O)=O)CC3)nc21`, for which the inhibition in assay [1] was determined as 13%; in assay [2], 9%; in assay [3], 14%; in assay [4], 10%; in assay [5] it was 10%; in assay [6], 16%.
